# According to patent US4631270A, “Therapeutically useful pseudopeptides, compositions containing the same and methods of preparation and use” (priority 1985, dated 1986):
# Like-named read-outs stand apart in the source and are kept apart here.
# How the values were obtained:
# [1] = system: MC-1; assay: Mutagenicity test, growth inhibition, strain MC-1; format: cell-based, Bacillus subtilis; conditions: concentration 0.1 M
# Procedure: (§1) The mutagenicity of Gly .PSI. Leu and Gly .PSI. Ile was examined by a variation of the Ames test using repair-deficient strains of Bacillus subtilis.
# (§2) The specific procedures by which these tests were conducted are described in the following references: […]
# [2] = system: Pol A; assay: Mutagenicity test, growth inhibition, strain Pol A; format: cell-based, Bacillus subtilis; conditions: concentration 0.1 M
# Procedure: as §1, §2
# [3] = system: repair-deficient strains of Bacillus subtilis; assay: Mutagenicity test, variation of the Ames test (overall result); format: cell-based; conditions: results of Table 2b
# Procedure: as §1, §2
# [4] = system: Wild type; assay: Mutagenicity test, growth inhibition, wild type strain; format: cell-based, Bacillus subtilis; conditions: concentration 0.1 M
# Procedure: as §1, §2
# [5] = system: Hcr-9; assay: Mutagenicity test, growth inhibition, strain Hcr-9; format: cell-based, Bacillus subtilis
# Procedure: as §1, §2
# [6] = system: FB-13; assay: Mutagenicity test, growth inhibition, strain FB-13; format: cell-based, Bacillus subtilis; conditions: concentration 0.1 M
# Procedure: as §1, §2
# [7] = system: methionine adenosyl transferase (MAT)
# Source text: Possible mutagenic effects of pseudodipeptides were examined two ways. One possible route for a metabolic complication is via the action of methionine adenosyl transferase (MAT). Ethionine (which contains a thiomethylene linkage) is known to be both a carcinogen and a substrate for MAT.
# [8] = system: Swiss Wistar mice; assay: Acute toxicity and weight gain of Swiss Wistar mice injected I.P.; format: in vivo; conditions: dose levels 44-432 mg/Kg, five mice per dose level
# Procedure: One example of the low toxicity of the compounds of this invention is the results achieved with mice on treatment with Gly .PSI. Leu. In the test Swiss Wistar mice were injected I.P. with Gly .PSI. Leu at the dose levels indicated below. Five mice were tested at each dose level. […] The behavior of the animals was observed closely for 7 days after injection.
# [9] = rapid destruction by proteolysis; cited from earlier work
compound,measurement,setting,value
CC[C@H](C)[C@H](SCCN)C(=O)O [Gly .PSI. Ile],"Growth Inhibition of Bacterial Strains in mm, MC-1",[1],0 mm
same,"Growth Inhibition of Bacterial Strains in mm, Pol A",[2],0 mm
same,mutagenicity,[3],neither Gly .PSI. Leu nor Gly .PSI. Ile behaves as a mutagen
same,"Growth Inhibition of Bacterial Strains in mm, Wild type",[4],0 mm
same,"Growth Inhibition of Bacterial Strains in mm, Hcr-9",[5],0 mm
same,"Growth Inhibition of Bacterial Strains in mm, FB-13",[6],0 mm
"CC(C)CC(SCCN)C(=O)O (centres unmarked) [Gly .PSI. Leu, pseudoglycylleucine]","Growth Inhibition of Bacterial Strains in mm, MC-1",[1],0 mm
same,"Growth Inhibition of Bacterial Strains in mm, Pol A",[2],0 mm
same,mutagenicity,[3],neither Gly .PSI. Leu nor Gly .PSI. Ile behaves as a mutagen
same,"Growth Inhibition of Bacterial Strains in mm, Wild type",[4],0 mm
same,Counts/Min transferred,"[7]; Expt I, concentration 12 mM, None = 15,760","16,620 Counts/Min"
same,Counts/Min transferred,"[7]; Expt II, concentration 80 mM, None = 7,380","7,990 Counts/Min"
same,effect on MAT activity,[7]; possible substrate or competitive inhibitor of MAT,neither Gly .PSI. Leu nor Gly .PSI. D-Leu has a measurable effect on MAT activity
same,"Growth Inhibition of Bacterial Strains in mm, Hcr-9",[5]; concentration 0.1 M,0 mm
same,signs of acute toxicity,[8],In no case did any of the mice show any signs of acute toxicity
same,"Growth Inhibition of Bacterial Strains in mm, FB-13",[6],0 mm
pGlu-His-Trp-Ser-Tyr-Gly-Leu-Arg-Pro-Gly-NH2 [Luteinizing hormone-releasing hormone],biological half-life,[9],2 min.
